# From patent publication US20210369746A1, “ADMINISTRATION OF HYPOXIA ACTIVATED PRODRUGS IN COMBINATION WITH IMMUNE MODULATORY AGENTS FOR TREATING CANCER” (MOLECULAR TEMPLATES, INC., priority 2016, published 2021)
# System: TRAMP-C2 and/or Panc02 pancreatic ductal adenocarcinoma cells
# Assay: Antitumor activity of TH-302 with immune modulating agents in mice xenografts
# Format: in vivo
# Conditions: single agent; TH-302 50 mg/kg i.p. every day for 5 days; tumor growth observed by IVIS
# Method: 5×10^5 to 1×10^6 TRAMP-C2, C57BL/6J, B6, FVB F1 cells and/or Panc02 pancreatic ductal adenocarcinoma cells expressing luciferase are […] implanted s.c. on the right flank of albino or ODD-Luc reporter mice. The mice are treated with TH-302 alone (50 mg/kg i.p., every day for 5 days), either 1 week, 3 weeks or 16 weeks after TRAMP cell implantation, with a week of rest in between. Some mice are also treated with CTLA-4 blocking antibody 9H10, PD-1 blocking antibody RMP1-14 and/or agonistic […] antibody given i.p. on days 1, 4, 7 and days 13, 16 and 19 for one to three cycles. Mice are monitored for survival (log-rank, mantel-cox test) and tumor growth was observed by IVIS once a week up to 140 days after tumor implantation. The mice were then sacrificed and their organs were weighed and tumors were isolated, fixed in paraformaldehyde or acetone, embedded/mounted in OCT, frozen, sectioned, stained for hypoxia with anti-piminidazole FITC, GR-1 V450, CD11b Alexa 546, and/or F4/80 Alexa 647.
smiles,measurement,value
Cn1c(COP(=O)(NCCBr)NCCBr)cnc1[N+](=O)[O-] [TH-302],tumor growth delay,produced a growth delay
